{
  "source": "paper PMC5618191",
  "about": "(Toxins, 2017)",
  "key": {"[1]": {"tested_on": "KB-3-1 cells", "set-up": "method as in PMID 19517454", "conditions": "two-year in vitro selection process; cited from earlier work"}, "[2]": {"tested_on": "KB-3-1 cells", "experiment": "Annexin-V/PI staining (cell death analysis)", "format": "cell-based, human", "conditions": "KB-3-1, 24 h", "protocol": "1. Supplementary Materials and Methods […]\n1.2 Annexin-V/PI Staining\nKB-3-1 cells were seeded (2x10^5cells/well) and treated on the following day for 24 h with the […]\nCells were trypsinized, centrifuged (300g, 5 min) and resuspended in 100 µL buffer A (10 mM HEPES, 140 mM NaCl and 2.5 mM CaCl2) and stained for 15 min in the dark with PI (1 µg/mL) and Annexin-V-APC (20 µL/mL, BD Biosciences). Two-hundred µL of buffer A were then added and 10,000 cells were measured by FACS analysis (FACSCalibur; Becton Dickinson). Percentages of viable, early and late apoptotic cells and of necrotic cells were determined by CellQuest Pro software (Becton, Dickinson and Company, NY, USA). […]\nThe following primary […]\nantibodies specific for the following targets were diluted 1:1000 in TBST/3% BSA (w/v): PARP, Bak, Bax, Bim, Bcl-xL (polyclonal, Cell Signaling Technology, Beverly, MA, USA), caspase 9, cl. caspase 9 (monoclonal, Cell Signaling Technology) and β-actin (monoclonal, Clone AC-15, Sigma-Aldrich).\nSecondary horseradish peroxidase-labeled antibodies (goat anti-rabbit or anti-mouse, Santa Cruz Biotechnology, Dallas, Texas, TX, USA) were diluted 1:10,000 in TBST/1% BSA. […]\n(b) Mean percentages (± SD) of early (white bars) and late apoptotic (gray bars) and of necrotic cells (black bars) were determined by Annexin-V/PI staining after cells were treated for 24 h with the […]"}, "[3]": {"tested_on": "HUVEC cells", "experiment": "Vessel forming and migratory ability of HUVEC cells", "format": "cell-based, human", "conditions": "subtoxic concentrations, unpublished data"}},
  "data": [
    {"substance": "beauvericin", "values": [
      {"measurement": "Acquisition of resistance", "setting": "[1]", "result": "did not induce beauvericin-unresponsiveness"},
      {"measurement": "Concentration at which induction of apoptotic cell death was clearly detectable", "setting": "[2]", "result": "> 2", "unit": "µM"},
      {"measurement": "Vessel forming and migratory ability of HUVEC cells", "setting": "[3]", "result": "distinctly inhibited"}
    ]}
  ]
}
